Laboratory results published in PMC8672774, “Discovery of cell active macrocyclic peptides with on-target inhibition of KRAS signaling” (Chemical Science, 2021).

Assays:
[1] = test system: MAPK and PI3K signaling in A375 cells (BRAF^V600E); assay: Western blot of MAPK and PI3K signaling in A375 cells; assay type: cell-based
Procedure: (§1) Western Blotting: Cells were seeded in 24-well poly-D-lysine coated plates and treated with the indicated peptides the next day. Following incubation, 100 μl of 1X Bolt™ LDS sample buffer supplemented with NuPAGE® sample reducing agent was added. Wells were scrapped using wide orifice
bath sonicator (QSonica).
(§2) onto nitrocellulose membranes using the Trans-Blot® Turbo™ semi-dry sy s te m ( Bio -rad), and blocked for 1 hour at room temperature with tris-buffered saline (TBS) Odyssey blocking buffer (Li- Cor). Blots were probed with the appropriate primary antibodies overnight at 4°C in Odyssey blocking buffer supplemented with 0.1% Tween-20, followed by the secondary antibodies IRDye® 680RD donkey anti-mouse IgG or IRDye® 800CW donkey anti-rabbit IgG (Li- Cor) for 1 hour at room temperature.
(§3) Fluorescent signals were imaged and quantified using Odyssey® CLx. Primary antibodies used were:

[2] = test system: MAPK and PI3K signaling in SK-MEL-28 cells (BRAF^V600E); assay: Western blot of MAPK and PI3K signaling in SK-MEL-28 cells; assay type: cell-based
Procedure: as §1
bath sonicator (QSonica).
as §2, §3

in vitro = details: human
rat mast cells = assay: Ex vivo rat mast cell degranulation and histamine release assay; details: for rMCD histamine release threshold: lowest concentration at which histamine release was observed, rat peritoneal mast cells, 30 min; for activation of mast cell degranulation (histamine release), in words: ex vivo, rat mast cells
Procedure: The reported rat mast cell degranulation (rMCD) value in Table 4 is a threshold for the lowest concentration at which a two-fold change in histamine release was observed.
In Vitro Rat M ast Cell Degranulation and H istamine Release Ass ess m ent: Peritoneal lavage was isolated
from Wister- Han rats as described in literature. In brief, animals were anesthetized with xylene followed
by an injection of about 10 mL of Tyrode buffer (12 mM NaHCO3, 127 mM NaCl, 5 mM KCl, 0.5 mM
NaH2PO4, 1 mM MgCl2, 5 mM Glucose and 10 mM HEPES, pH 7.4) into the peritoneal cavity. After a
gentle abdomen massage, peritoneal lavage was collected and centrifuged at 350 x g for 5 minutes. Cell
pellets were resuspended in Tyrode buffer with 10% heat inactivated rat serum to reach a final
Freshly isolated rat peritoneal cells were aliquoted to a 96 well tissue-
culture plate (100 µL per well).
peptides for 30 minutes at 37°C. After incubation, the plate was centrifuged at 350 x g for 2 minutes at
room temperature. Supernatant were collected and histamine concentration was measured by ELISA
(Neogen, Lansing, MI) following vendor’s instructions. Amount of histamine in the supernatant was
presented as ng/mL. A detection of histamine release was defined as the histamine concentration in
from 10 vehicle-control treated samples from the same animal). The lowest concentration that a

[3] = test system: pERK and pAKT in AsPC-1 cells; assay: Western blot of KRAS signaling (pERK, pAKT) in AsPC-1 cells; assay type: cell-based; details: 1 hour and 16 hour time-points
Procedure: as §1
bath sonicator (QSonica).
as §2, §3
(D14E12) (Cell Signaling Technology, #8 24 2), phospho-IκBα (Ser32) (Cell Signaling Technology, #2 85 9) , IκBα (L35A5) (Cell Signaling Technology, #4 81 4) , NanoLuc (Promega, N7000) and pan-RAS (Sigma,
mM PMSF and Co mplete™ EDTA-free protease inhibitor cocktail (Roche) for 30 min with intermittent

Row | half-life at 1 µM (in vitro; HeLa cell homogenate) [h] | SMILES | rMCD histamine release threshold (rat mast cells) [µM] | other results
1 | – | Cc1ccc(NC(=O)c2cccc(C(C)(C)C#N)c2)cc1Nc1ccc2ncn(C)c(=O)c2c1 [AZ628, reference compound] | – | inhibition of MAPK signaling in A375 [1]: inhibited MAPK signaling; inhibition of MAPK signaling in SK-MEL-28 [2]: inhibited MAPK signaling
2 | 2.37 | CC[C@H](C)[C@@H]1NC(=O)[C@H](Cc2ccc(O)cc2)NC(=O)[C@H](CC(C)C)NC(=O)[C@]2(C)CCCN2C(=O)[C@H](NC(=O)[C@H](CCCNC(=N)N)NC(=O)[C@H](CCCNC(=N)N)NC(=O)[C@H](CCCCN=[N+]=[N-])NC(C)=O)CSCSC[C@@H](C(=O)N[C@@H](CCCNC(=N)N)C(=O)N[C@@H](CCCNC(=N)N)C(N)=O)NC(=O)[C@H](C(C)C)NC(=O)[C@@H]2CCCN2C(=O)[C@H](CC(=O)O)NC(=O)[C@H](Cc2ccc(O)cc2)NC(=O)[C@H](CO)NC1=O [Compound 14] | – | –
3 | 1.9 | CC[C@H](C)[C@@H]1NC(=O)[C@H](Cc2ccc(O)cc2)NC(=O)[C@](C)(CC(C)C)NC(=O)[C@@H]2CCCN2C(=O)[C@H](NC(=O)[C@H](CCCNC(=N)N)NC(=O)[C@H](CCCNC(=N)N)NC(=O)[C@H](CCCCN=[N+]=[N-])NC(C)=O)CSCSC[C@@H](C(=O)N[C@@H](CCCNC(=N)N)C(=O)N[C@@H](CCCNC(=N)N)C(N)=O)NC(=O)[C@H](C(C)C)NC(=O)[C@@H]2CCCN2C(=O)[C@H](CC(=O)O)NC(=O)[C@H](Cc2ccc(O)cc2)NC(=O)[C@H](CO)NC1=O [Compound 15] | – | –
4 | > 6.22 | CC[C@H](C)[C@@H]1NC(=O)[C@](C)(Cc2ccccc2)NC(=O)[C@H](CC(C)C)NC(=O)[C@@H]2CCCN2C(=O)[C@H](NC(=O)[C@H](CCCNC(=N)N)NC(=O)[C@H](CCCNC(=N)N)NC(=O)[C@H](CCCCN=[N+]=[N-])NC(C)=O)CSCSC[C@@H](C(=O)N[C@@H](CCCNC(=N)N)C(=O)N[C@@H](CCCNC(=N)N)C(N)=O)NC(=O)[C@H](C(C)C)NC(=O)[C@@H]2CCCN2C(=O)[C@H](CC(=O)O)NC(=O)[C@H](Cc2ccc(O)cc2)NC(=O)[C@H](CO)NC1=O [Compound 16] | – | –
5 | 2.57 | CC[C@H](C)[C@@H]1NC(=O)[C@H](Cc2ccc(O)cc2)NC(=O)[C@H](CC(C)C)NC(=O)[C@@H]2CCCN2C(=O)[C@H](NC(=O)[C@H](CCCNC(=N)N)NC(=O)[C@H](CCCNC(=N)N)NC(=O)[C@H](CCCCN=[N+]=[N-])NC(C)=O)CSCSC[C@@H](C(=O)N[C@@H](CCCNC(=N)N)C(=O)N[C@@H](CCCNC(=N)N)C(N)=O)NC(=O)[C@H](C(C)C)NC(=O)[C@@H]2CCCN2C(=O)[C@H](CC(=O)O)NC(=O)[C@H](Cc2ccc(O)cc2)NC(=O)[C@](C)(CO)NC1=O [Compound 17] | – | –
6 | 1.18 | CC[C@H](C)[C@@H]1NC(=O)[C@H](Cc2ccc(O)cc2)NC(=O)[C@H](CC(C)C)NC(=O)[C@@H]2CCCN2C(=O)[C@H](NC(=O)[C@H](CCCNC(=N)N)NC(=O)[C@H](CCCNC(=N)N)NC(=O)[C@H](CCCCN=[N+]=[N-])NC(C)=O)CSCSC[C@@H](C(=O)N[C@@H](CCCNC(=N)N)C(=O)N[C@@H](CCCNC(=N)N)C(N)=O)NC(=O)[C@H](C(C)C)NC(=O)[C@@H]2CCCN2C(=O)[C@H](CC(=O)O)NC(=O)[C@](C)(Cc2ccc(O)cc2)NC(=O)[C@H](CO)NC1=O [Compound 18] | – | –
7 | 0.683 | CC[C@H](C)[C@@H]1NC(=O)[C@H](Cc2ccc(O)cc2)NC(=O)[C@H](CC(C)C)NC(=O)[C@@H]2CCCN2C(=O)[C@H](NC(=O)[C@H](CCCNC(=N)N)NC(=O)[C@H](CCCNC(=N)N)NC(=O)[C@H](CCCCN=[N+]=[N-])NC(C)=O)CSCSC[C@@H](C(=O)N[C@@H](CCCNC(=N)N)C(=O)N[C@@H](CCCNC(=N)N)C(N)=O)NC(=O)[C@H](C(C)C)NC(=O)[C@@H]2CCCN2C(=O)[C@](C)(CC(=O)O)NC(=O)[C@H](Cc2ccc(O)cc2)NC(=O)[C@H](CO)NC1=O [Compound 19] | – | –
8 | 2.23 | CC[C@H](C)[C@@H]1NC(=O)[C@H](Cc2ccc(O)cc2)NC(=O)[C@H](CC(C)C)NC(=O)[C@@H]2CCCN2C(=O)[C@H](NC(=O)[C@H](CCCNC(=N)N)NC(=O)[C@H](CCCNC(=N)N)NC(=O)[C@H](CCCCN=[N+]=[N-])NC(C)=O)CSCSC[C@@H](C(=O)N[C@@H](CCCNC(=N)N)C(=O)N[C@@H](CCCNC(=N)N)C(N)=O)NC(=O)[C@H](C(C)C)NC(=O)[C@]2(C)CCCN2C(=O)[C@H](CC(=O)O)NC(=O)[C@H](Cc2ccc(O)cc2)NC(=O)[C@H](CO)NC1=O [Compound 20] | – | –
9 | 2 | CC[C@H](C)[C@@H]1NC(=O)[C@H](Cc2ccc(O)cc2)NC(=O)[C@H](CC(C)C)NC(=O)[C@@H]2CCCN2C(=O)[C@H](NC(=O)[C@H](CCCNC(=N)N)NC(=O)[C@H](CCCNC(=N)N)NC(=O)[C@H](CCCCN=[N+]=[N-])NC(C)=O)CSCSC[C@@](C)(C(=O)N[C@@H](CCCNC(=N)N)C(=O)N[C@@H](CCCNC(=N)N)C(N)=O)NC(=O)[C@H](C(C)C)NC(=O)[C@@H]2CCCN2C(=O)[C@H](CC(=O)O)NC(=O)[C@H](Cc2ccc(O)cc2)NC(=O)[C@H](CO)NC1=O [Compound 22] | – | –
10 | – | CC[C@H](C)[C@@H]1NC(=O)[C@H](Cc2ccc(O)cc2)NC(=O)[C@H](CC(C)C)NC(=O)[C@@H]2CCCN2C(=O)[C@H](NC(=O)[C@H](CCCNC(=N)N)NC(=O)[C@H](CCCNC(=N)N)NC(=O)[C@H](CCCNC(=N)N)NC(=O)[C@H](CCCCN=[N+]=[N-])NC(C)=O)CSCSC[C@@H](C(=O)N[C@@H](CCCNC(=N)N)C(=O)N[C@@H](CCCNC(=N)N)C(=O)N[C@@H](CCCNC(=N)N)C(N)=O)NC(=O)[C@H](C(C)C)NC(=O)[C@@H]2CCCN2C(=O)[C@H](CC(=O)O)NC(=O)[C@H](Cc2ccc(O)cc2)NC(=O)[C@H](CO)NC1=O [Compound 23] | ≥0.14 | –
11 | – | CC[C@H](C)[C@@H]1NC(=O)[C@H](Cc2ccc(O)cc2)NC(=O)[C@H](CC(C)C)NC(=O)[C@@H]2CCCN2C(=O)[C@H](NC(=O)[C@H](CCCCN=[N+]=[N-])NC(C)=O)CSCSC[C@@H](C(=O)N[C@@H](CCCNC(=N)N)C(N)=O)NC(=O)[C@H](C(C)C)NC(=O)[C@@H]2CCCN2C(=O)[C@H](CC(=O)O)NC(=O)[C@H](Cc2ccc(O)cc2)NC(=O)[C@H](CO)NC1=O [Compound 24] | >100 | activation of mast cell degranulation (histamine release), in words (rat mast cells): free from this potential liability
12 | – | CC[C@H](C)[C@@H]1NC(=O)[C@H](Cc2ccc(O)cc2)NC(=O)[C@H](CC(C)C)NC(=O)[C@@H]2CCCN2C(=O)[C@H](NC(=O)[C@H](CCCCN=[N+]=[N-])NC(C)=O)CSCSC[C@@H](C(N)=O)NC(=O)[C@H](C(C)C)NC(=O)[C@@H]2CCCN2C(=O)[C@H](CC(=O)O)NC(=O)[C@H](Cc2ccc(O)cc2)NC(=O)[C@H](CO)NC1=O [Compound 25] | >100 | activation of mast cell degranulation (histamine release), in words (rat mast cells): free from this potential liability
13 | – | N#CC(=C(/N)Sc1ccccc1N)/C(C#N)=C(/N)Sc1ccccc1N [Compound U0126, reference compound] | – | inhibition of MAPK signaling in A375 [1]: inhibited MAPK signaling; inhibition of MAPK signaling in SK-MEL-28 [2]: inhibited MAPK signaling
14 | – | CC[C@H](C)[C@@H]1NC(=O)[C@H](Cc2ccc(O)cc2)NC(=O)[C@H](CC(C)C)NC(=O)[C@@H]2CCCN2C(=O)[C@H](NC(=O)[C@H](CCCNC(=N)N)NC(=O)[C@H](CCCNC(=N)N)NC(=O)[C@H](CCCCN=[N+]=[N-])NC(C)=O)CSCSC[C@@H](C(=O)N[C@@H](CCCNC(=N)N)C(=O)N[C@@H](CCCNC(=N)N)C(N)=O)NC(=O)[C@H](C(C)C)NC(=O)[C@@H]2CCCN2C(=O)[C@H](CC(=O)O)NC(=O)[C@H](Cc2ccc(O)cc2)NC(=O)[C@H](CO)NC1=O [MP-1687] | ≥3.7 | half-life at 1 µM (in vitro; tissue homogenate): 0.617 h
15 | – | CC[C@H](C)[C@@H]1NC(=O)[C@H](Cc2ccc(O)cc2)NC(=O)[C@H](CC(C)C)NC(=O)[C@@H]2CCCN2C(=O)[C@H](NC(=O)[C@H](CCCNC(=N)N)NC(=O)[C@H](CCCNC(=N)N)NC(=O)[C@H](CCCNC(=N)N)NC(=O)[C@H](CCCNC(=N)N)NC(=O)[C@H](CCCCN=[N+]=[N-])NC(C)=O)CSCSC[C@@H](C(=O)N[C@@H](CCCNC(=N)N)C(=O)N[C@@H](CCCNC(=N)N)C(=O)N[C@@H](CCCNC(=N)N)C(=O)N[C@@H](CCCNC(=N)N)C(N)=O)NC(=O)[C@H](C(C)C)NC(=O)[C@@H]2CCCN2C(=O)[C@H](CC(=O)O)NC(=O)[C@H](Cc2ccc(O)cc2)NC(=O)[C@H](CO)NC1=O [MP-6483] | ≥0.14 | inhibition of KRAS signaling (pERK, pAKT) by Western blot [3]: display cell-based inhibition
16 | – | CC[C@H](C)[C@@H]1NC(=O)[C@H](Cc2ccc(O)cc2)NC(=O)[C@H](CC(C)C)NC(=O)[C@@H]2CCCN2C(=O)[C@H](NC(=O)[C@@H](CCCNC(=N)N)NC(=O)[C@@H](CCCNC(=N)N)NC(=O)[C@@H](CCCNC(=N)N)NC(=O)[C@@H](CCCNC(=N)N)NC(=O)[C@H](CCCCN=[N+]=[N-])NC(C)=O)CSCSC[C@@H](C(=O)N[C@H](CCCNC(=N)N)C(=O)N[C@H](CCCNC(=N)N)C(=O)N[C@H](CCCNC(=N)N)C(=O)N[C@H](CCCNC(=N)N)C(N)=O)NC(=O)[C@H](C(C)C)NC(=O)[C@@H]2CCCN2C(=O)[C@@H](CC(=O)O)NC(=O)[C@H](Cc2ccc(O)cc2)NC(=O)[C@H](CO)NC1=O [MP-9658, Ac-K(N3)-rrrr-cyclo(c(methylene)PLYISYdPVC)-rrrr-NH2] | – | inhibition of MAPK signaling in A375 [1]: inactive; inhibition of MAPK signaling in SK-MEL-28 [2]: inactive
17 | – | CC[C@H](C)[C@@H]1NC(=O)[C@H](Cc2ccc(O)cc2)NC(=O)[C@H](CC(C)C)NC(=O)[C@@H]2CCCN2C(=O)[C@H](NC(=O)[C@H](CCCNC(=N)N)NC(=O)[C@H](CCCCN=[N+]=[N-])NC(C)=O)CSCSC[C@@H](C(=O)N[C@@H](CCCNC(=N)N)C(N)=O)NC(=O)[C@H](C(C)C)NC(=O)[C@@H]2CCCN2C(=O)[C@H](CC(=O)O)NC(=O)[C@H](Cc2ccc(O)cc2)NC(=O)[C@H](CO)NC1=O [MP-9903] | >100 | activation of mast cell degranulation (histamine release), in words (rat mast cells): free from this potential liability
